Key:
[1] = target: Serine/threonine-protein kinase SBK1 (Homo sapiens) (UniProt Q52WX2); settings: Compound concentration 1000.0 nM
[2] = test system: Phosphatidylinositol 4,5-bisphosphate 3-kinase catalytic subunit alpha isoform (Homo sapiens), P42336 [C420R]; settings: Compound concentration 1000.0 nM
[3] = target: Ribosomal protein S6 kinase alpha-4 (Homo sapiens) (UniProt O75676); settings: Compound concentration 1000.0 nM
[4] = target: Serine/threonine-protein kinase OSR1 (Homo sapiens) (UniProt O95747); settings: Compound concentration 1000.0 nM
[5] = target: Serine/threonine-protein kinase ICK (Homo sapiens) (UniProt Q9UPZ9); settings: Compound concentration 1000.0 nM
[6] = target: Serine/threonine-protein kinase PLK1 (Homo sapiens) (UniProt P53350); settings: Compound concentration 1000.0 nM
[7] = test system: ALK tyrosine kinase receptor (Homo sapiens), Q9UM73 [C1156Y]; settings: Compound concentration 1000.0 nM
[8] = target: Mitogen-activated protein kinase kinase kinase 7 (Homo sapiens) (UniProt O43318); settings: Compound concentration 1000.0 nM
[9] = target: BDNF/NT-3 growth factors receptor (Homo sapiens) (UniProt Q16620); settings: Compound concentration 1000.0 nM
[10] = target: Serine/threonine-protein kinase RIO1 (Homo sapiens) (UniProt Q9BRS2); settings: Compound concentration 1000.0 nM
[11] = target: Ephrin type-A receptor 7 (Homo sapiens) (UniProt Q15375); settings: Compound concentration 1000.0 nM
[12] = target: Ribosomal protein S6 kinase alpha-1 (Homo sapiens) (UniProt Q15418); settings: Compound concentration 1000.0 nM
[13] = target: Calcium/calmodulin-dependent protein kinase type II subunit delta (Homo sapiens) (UniProt Q13557); settings: Compound concentration 1000.0 nM
[14] = target: Dual specificity protein kinase CLK4 (Homo sapiens) (UniProt Q9HAZ1); settings: Compound concentration 1000.0 nM
[15] = target: LIM domain kinase 2 (Homo sapiens) (UniProt P53671); settings: Compound concentration 1000.0 nM
[16] = target: Interleukin-1 receptor-associated kinase 4 (Homo sapiens) (UniProt Q9NWZ3); settings: Compound concentration 1000.0 nM
[17] = target: Sodium-dependent serotonin transporter (Homo sapiens) (UniProt P31645); settings: Compound concentration 10.0 uM
[18] = target: Fibroblast growth factor receptor 2 (Homo sapiens) (UniProt P21802); settings: Compound concentration 1000.0 nM
[19] = test system: Receptor-type tyrosine-protein kinase FLT3 (Homo sapiens), P36888 [UNDEFINED MUTATION]; settings: Compound concentration 1000.0 nM
[20] = target: Death-associated protein kinase 1 (Homo sapiens) (UniProt P53355); settings: Compound concentration 1000.0 nM
[21] = target: Serine/threonine-protein kinase MRCK beta (Homo sapiens) (UniProt Q9Y5S2); settings: Compound concentration 1000.0 nM
[22] = target: Protein kinase C theta type (Homo sapiens) (UniProt Q04759); settings: Compound concentration 1000.0 nM
[23] = target: Protein kinase C epsilon type (Homo sapiens) (UniProt Q02156); settings: Compound concentration 1000.0 nM
[24] = target: Serine/threonine-protein kinase BRSK2 (Homo sapiens) (UniProt Q8IWQ3); settings: Compound concentration 1000.0 nM
[25] = test system: Mast/stem cell growth factor receptor Kit (Homo sapiens), P10721 [V559D]; settings: Compound concentration 1000.0 nM
[26] = target: Cyclin-dependent kinase-like 1 (Homo sapiens) (UniProt Q00532); settings: Compound concentration 1000.0 nM
[27] = test system: Tyrosine-protein kinase ABL1 (Homo sapiens), P00519 [Y253F]; settings: Compound concentration 1000.0 nM
[28] = target: Serine/threonine-protein kinase 32C (Homo sapiens) (UniProt Q86UX6); settings: Compound concentration 1000.0 nM
[29] = target: Serine/threonine-protein kinase Nek2 (Homo sapiens) (UniProt P51955); settings: Compound concentration 1000.0 nM
[30] = target: Activin receptor type-2A (Homo sapiens) (UniProt P27037); settings: Compound concentration 1000.0 nM
[31] = target: Serine/threonine-protein kinase 36 (Homo sapiens) (UniProt Q9NRP7); settings: Compound concentration 1000.0 nM
[32] = target: Platelet-derived growth factor receptor alpha (Homo sapiens) (UniProt P16234); settings: Compound concentration 1000.0 nM
[33] = target: Dual specificity mitogen-activated protein kinase kinase 5 (Homo sapiens) (UniProt Q13163); settings: Compound concentration 1000.0 nM
[34] = test system: Tyrosine-protein kinase ABL1 (Homo sapiens), P00519 [F317I]; settings: Compound concentration 1000.0 nM
[35] = target: Mitogen-activated protein kinase 7 (Homo sapiens) (UniProt Q13164); settings: Compound concentration 1000.0 nM
[36] = target: Myosin light chain kinase 2, skeletal/cardiac muscle (Homo sapiens) (UniProt Q9H1R3); settings: Compound concentration 1000.0 nM
[37] = test system: Mast/stem cell growth factor receptor Kit (Homo sapiens), P10721 [V559D,V654A]; settings: Compound concentration 1000.0 nM
[38] = target: Mitogen-activated protein kinase kinase kinase 1 (Homo sapiens) (UniProt Q13233); settings: Compound concentration 1000.0 nM
[39] = target: Cyclin-dependent kinase 5 (Homo sapiens) (UniProt Q00535); settings: Compound concentration 1000.0 nM
[40] = target: Glycogen synthase kinase-3 alpha (Homo sapiens) (UniProt P49840); settings: Compound concentration 1000.0 nM
[41] = target: Ribosomal protein S6 kinase alpha-6 (Homo sapiens) (UniProt Q9UK32); settings: Compound concentration 1000.0 nM
[42] = target: Microtubule-associated serine/threonine-protein kinase 1 (Homo sapiens) (UniProt Q9Y2H9); settings: Compound concentration 1000.0 nM
[43] = target: Mitogen-activated protein kinase kinase kinase 10 (Homo sapiens) (UniProt Q02779); settings: Compound concentration 1000.0 nM
[44] = target: Myosin light chain kinase family member 4 (Homo sapiens) (UniProt Q86YV6); settings: Compound concentration 1000.0 nM
[45] = target: Ephrin type-A receptor 8 (Homo sapiens) (UniProt P29322); settings: Compound concentration 1000.0 nM

Platelet-derived growth factor receptor alpha (Homo sapiens), sequence (P16234 whole entry): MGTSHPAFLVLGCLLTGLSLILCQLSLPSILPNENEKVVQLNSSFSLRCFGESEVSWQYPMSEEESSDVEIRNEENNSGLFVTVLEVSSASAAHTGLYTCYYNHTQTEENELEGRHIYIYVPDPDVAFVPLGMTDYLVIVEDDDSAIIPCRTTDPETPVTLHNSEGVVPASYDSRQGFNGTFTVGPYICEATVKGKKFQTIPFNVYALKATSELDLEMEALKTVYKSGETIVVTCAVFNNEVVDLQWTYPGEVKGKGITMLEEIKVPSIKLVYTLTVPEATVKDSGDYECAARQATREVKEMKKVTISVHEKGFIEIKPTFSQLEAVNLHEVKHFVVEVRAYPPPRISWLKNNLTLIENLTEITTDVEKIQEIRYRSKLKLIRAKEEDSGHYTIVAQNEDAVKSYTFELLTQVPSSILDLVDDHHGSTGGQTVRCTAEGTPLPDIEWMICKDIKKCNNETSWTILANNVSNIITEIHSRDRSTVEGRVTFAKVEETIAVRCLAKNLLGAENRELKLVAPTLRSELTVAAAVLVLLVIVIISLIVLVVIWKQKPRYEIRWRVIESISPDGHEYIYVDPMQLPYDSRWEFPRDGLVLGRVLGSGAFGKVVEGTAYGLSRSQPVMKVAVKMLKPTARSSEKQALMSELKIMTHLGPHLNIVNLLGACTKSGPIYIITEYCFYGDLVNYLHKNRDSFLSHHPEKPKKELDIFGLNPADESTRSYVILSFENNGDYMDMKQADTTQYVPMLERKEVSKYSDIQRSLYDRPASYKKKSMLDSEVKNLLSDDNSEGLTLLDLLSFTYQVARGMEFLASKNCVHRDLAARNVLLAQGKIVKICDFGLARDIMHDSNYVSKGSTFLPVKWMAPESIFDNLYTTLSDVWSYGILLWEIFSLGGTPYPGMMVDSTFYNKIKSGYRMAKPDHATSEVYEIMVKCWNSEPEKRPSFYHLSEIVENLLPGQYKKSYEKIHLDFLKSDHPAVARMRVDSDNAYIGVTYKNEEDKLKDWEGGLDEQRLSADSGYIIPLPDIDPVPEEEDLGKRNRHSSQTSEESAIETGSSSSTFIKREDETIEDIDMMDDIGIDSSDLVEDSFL
Ribosomal protein S6 kinase alpha-1 (Homo sapiens), sequence (Q15418 whole entry): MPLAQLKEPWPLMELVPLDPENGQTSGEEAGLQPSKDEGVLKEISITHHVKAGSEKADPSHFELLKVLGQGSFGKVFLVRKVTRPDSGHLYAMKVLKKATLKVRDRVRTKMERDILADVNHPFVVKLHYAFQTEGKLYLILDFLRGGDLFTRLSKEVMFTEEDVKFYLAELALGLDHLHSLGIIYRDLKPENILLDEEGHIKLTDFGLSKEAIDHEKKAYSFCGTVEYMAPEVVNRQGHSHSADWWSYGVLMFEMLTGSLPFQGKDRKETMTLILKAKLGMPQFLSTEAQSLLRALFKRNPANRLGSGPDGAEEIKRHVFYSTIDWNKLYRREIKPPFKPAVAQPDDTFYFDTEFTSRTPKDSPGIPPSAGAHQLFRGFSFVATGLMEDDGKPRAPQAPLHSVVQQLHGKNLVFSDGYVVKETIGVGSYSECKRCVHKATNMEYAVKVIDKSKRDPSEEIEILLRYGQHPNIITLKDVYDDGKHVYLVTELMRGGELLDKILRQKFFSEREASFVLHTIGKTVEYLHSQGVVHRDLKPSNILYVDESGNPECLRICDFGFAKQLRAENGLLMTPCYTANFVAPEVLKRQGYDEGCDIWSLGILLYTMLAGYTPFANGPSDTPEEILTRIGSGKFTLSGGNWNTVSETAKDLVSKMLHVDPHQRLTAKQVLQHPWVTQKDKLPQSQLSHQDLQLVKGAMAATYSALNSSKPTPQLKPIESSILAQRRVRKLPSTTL
Dual specificity mitogen-activated protein kinase kinase 5 (Homo sapiens), sequence (Q13163 whole entry): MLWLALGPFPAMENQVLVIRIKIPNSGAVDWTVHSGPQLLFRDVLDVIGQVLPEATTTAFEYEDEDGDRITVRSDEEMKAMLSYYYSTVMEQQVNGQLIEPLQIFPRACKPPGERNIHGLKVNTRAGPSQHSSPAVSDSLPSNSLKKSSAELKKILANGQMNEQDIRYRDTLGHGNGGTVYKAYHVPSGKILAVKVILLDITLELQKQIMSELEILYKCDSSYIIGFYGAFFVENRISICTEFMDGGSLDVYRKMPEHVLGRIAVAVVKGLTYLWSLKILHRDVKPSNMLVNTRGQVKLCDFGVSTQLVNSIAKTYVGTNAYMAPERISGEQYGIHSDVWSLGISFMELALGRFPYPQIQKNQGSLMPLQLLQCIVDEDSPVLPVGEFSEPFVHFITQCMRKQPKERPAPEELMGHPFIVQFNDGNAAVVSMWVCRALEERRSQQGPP
Ribosomal protein S6 kinase alpha-6 (Homo sapiens), sequence (Q9UK32 whole entry): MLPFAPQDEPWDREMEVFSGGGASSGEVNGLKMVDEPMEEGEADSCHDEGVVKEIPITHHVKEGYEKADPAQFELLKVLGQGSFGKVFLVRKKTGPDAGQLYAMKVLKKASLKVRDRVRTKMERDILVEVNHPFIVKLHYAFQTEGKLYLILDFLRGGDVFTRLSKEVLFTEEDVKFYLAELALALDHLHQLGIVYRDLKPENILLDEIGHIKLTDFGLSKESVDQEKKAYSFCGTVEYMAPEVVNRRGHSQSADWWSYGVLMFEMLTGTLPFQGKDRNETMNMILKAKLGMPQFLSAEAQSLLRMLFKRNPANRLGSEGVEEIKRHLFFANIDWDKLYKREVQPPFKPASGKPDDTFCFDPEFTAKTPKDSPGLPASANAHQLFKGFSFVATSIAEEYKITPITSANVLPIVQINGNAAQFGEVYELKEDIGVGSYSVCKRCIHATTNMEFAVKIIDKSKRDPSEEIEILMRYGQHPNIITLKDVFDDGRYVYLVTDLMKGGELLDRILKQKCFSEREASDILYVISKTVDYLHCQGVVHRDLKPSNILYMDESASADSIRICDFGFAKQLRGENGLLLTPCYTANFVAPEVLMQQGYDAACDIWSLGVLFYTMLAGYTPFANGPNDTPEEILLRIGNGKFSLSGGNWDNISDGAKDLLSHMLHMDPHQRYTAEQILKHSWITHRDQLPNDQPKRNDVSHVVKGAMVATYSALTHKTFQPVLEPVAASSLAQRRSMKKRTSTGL
Glycogen synthase kinase-3 alpha (Homo sapiens), sequence (P49840 2-483 limits assumed): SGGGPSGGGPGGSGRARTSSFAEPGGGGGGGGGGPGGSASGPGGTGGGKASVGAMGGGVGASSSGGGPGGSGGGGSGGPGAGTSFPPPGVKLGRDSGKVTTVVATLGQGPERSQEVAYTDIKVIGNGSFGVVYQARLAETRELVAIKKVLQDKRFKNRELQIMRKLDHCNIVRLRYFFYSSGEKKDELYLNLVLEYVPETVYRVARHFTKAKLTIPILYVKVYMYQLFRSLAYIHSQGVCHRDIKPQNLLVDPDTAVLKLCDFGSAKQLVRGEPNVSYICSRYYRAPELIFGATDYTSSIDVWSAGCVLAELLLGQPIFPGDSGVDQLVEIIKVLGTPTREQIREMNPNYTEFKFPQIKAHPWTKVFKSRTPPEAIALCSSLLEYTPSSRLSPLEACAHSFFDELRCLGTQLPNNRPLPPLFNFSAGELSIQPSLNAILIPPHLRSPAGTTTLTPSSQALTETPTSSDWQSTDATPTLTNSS
Serine/threonine-protein kinase Nek2 (Homo sapiens), sequence (P51955 whole entry): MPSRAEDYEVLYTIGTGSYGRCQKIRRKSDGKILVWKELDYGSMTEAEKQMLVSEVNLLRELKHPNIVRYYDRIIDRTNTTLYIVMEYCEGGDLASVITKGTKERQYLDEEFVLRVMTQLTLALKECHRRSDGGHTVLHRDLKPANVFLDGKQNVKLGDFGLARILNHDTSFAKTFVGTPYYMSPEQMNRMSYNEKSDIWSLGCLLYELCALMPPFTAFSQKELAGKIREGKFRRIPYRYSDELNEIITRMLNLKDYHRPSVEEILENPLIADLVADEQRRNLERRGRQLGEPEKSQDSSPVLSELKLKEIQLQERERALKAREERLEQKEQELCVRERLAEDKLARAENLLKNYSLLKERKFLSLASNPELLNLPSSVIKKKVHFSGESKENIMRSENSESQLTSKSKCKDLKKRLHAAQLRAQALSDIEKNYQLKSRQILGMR
Mast/stem cell growth factor receptor Kit (Homo sapiens), P10721 [V559D], sequence (P10721 whole entry V559D): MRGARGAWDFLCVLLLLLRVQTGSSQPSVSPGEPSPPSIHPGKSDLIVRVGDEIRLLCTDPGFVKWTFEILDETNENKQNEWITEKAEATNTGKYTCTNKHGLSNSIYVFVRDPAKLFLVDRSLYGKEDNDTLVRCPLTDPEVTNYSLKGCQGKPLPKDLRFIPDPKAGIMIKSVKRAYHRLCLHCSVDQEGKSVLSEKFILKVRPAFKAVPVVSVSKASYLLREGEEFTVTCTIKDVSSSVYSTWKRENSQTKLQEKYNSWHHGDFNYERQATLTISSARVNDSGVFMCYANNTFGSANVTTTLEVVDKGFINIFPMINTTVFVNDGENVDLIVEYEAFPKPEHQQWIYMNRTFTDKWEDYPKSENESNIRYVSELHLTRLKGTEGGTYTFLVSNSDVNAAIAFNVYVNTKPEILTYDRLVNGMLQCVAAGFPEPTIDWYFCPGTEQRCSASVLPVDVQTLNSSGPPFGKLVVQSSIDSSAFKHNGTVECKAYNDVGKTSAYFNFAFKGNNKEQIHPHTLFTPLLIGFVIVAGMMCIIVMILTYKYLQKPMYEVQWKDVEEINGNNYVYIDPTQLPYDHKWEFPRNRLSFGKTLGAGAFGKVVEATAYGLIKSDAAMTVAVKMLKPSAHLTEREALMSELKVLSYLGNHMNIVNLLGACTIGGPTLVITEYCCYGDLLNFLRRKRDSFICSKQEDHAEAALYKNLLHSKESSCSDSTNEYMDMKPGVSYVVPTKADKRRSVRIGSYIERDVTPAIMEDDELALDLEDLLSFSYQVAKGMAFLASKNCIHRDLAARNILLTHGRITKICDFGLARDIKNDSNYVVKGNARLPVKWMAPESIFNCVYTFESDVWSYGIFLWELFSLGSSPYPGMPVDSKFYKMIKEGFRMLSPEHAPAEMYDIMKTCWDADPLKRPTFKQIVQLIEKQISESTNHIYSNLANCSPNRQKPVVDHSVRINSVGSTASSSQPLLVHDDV
Mast/stem cell growth factor receptor Kit (Homo sapiens), P10721 [V559D,V654A], sequence (P10721 whole entry V559D/V654A): as the sequence (P10721 whole entry V559D) above, with V654A counted along it

CC(=O)C1=C(C)N(c2cccc(C(F)(F)F)c2)C(=O)N[C@@H]1c1ccc(C#N)nc1 [BAY-678]
inactive: residual activity [1] 100% | residual activity [2] 100% | residual activity [3] 78.8% | residual activity [4] 100% | residual activity [5] 100% | residual activity [6] 100% | residual activity [7] 100% | residual activity [8] 100% | residual activity [9] 98.1% | residual activity [10] 87.5% | residual activity [11] 100% | residual activity [12] 100% | residual activity [13] 100% | residual activity [14] 88.3% | residual activity [15] 91.7% | residual activity [16] 100% | inhibition [17] -2.61% | residual activity [18] 100% | residual activity [19] 100% | residual activity [20] 93.8% | residual activity [21] 100% | residual activity [22] 83.3% | residual activity [23] 73.9% | residual activity [24] 100% | residual activity [25] 100% | residual activity [26] 80.9% | residual activity [27] 100% | residual activity [28] 94.1% | residual activity [29] 100% | residual activity [30] 85.7% | residual activity [31] 100% | residual activity [32] 100% | residual activity [33] 100% | residual activity [34] 100% | residual activity [35] 100% | residual activity [36] 100% | residual activity [37] 100% | residual activity [38] 100% | residual activity [39] 100% | residual activity [40] 95% | residual activity [41] 87.7% | residual activity [42] 96.9% | residual activity [43] 92.1% | residual activity [44] 100% | residual activity [45] 100%

— ChEMBL document CHEMBL4507272 (2021)
